Source: patent US5760241A, “Thiol derivatives with metallopeptidase inhibitory activity” (priority 1996, dated 1998)
pIC50: −log10 of the molar value.

Key:
ACE (SHR lungs) = assay: Ex vivo ACE-inhibitory activity in lungs of treated SHR; parameters: species or system spontaneously hypertensive rats (SHR); settings: i.v. 0.64 μmoles/kg, 5 minutes
Method: The ex vivo ACE/NEP-inhibitory activity of the compounds of formula I, in particular, was evaluated by considering the enzymatic activity in tissue homogenates (lung and kidney for the ACE- and NEP-inhibitory activity, respectively) from spontaneously hypertensive rats (SHR), treated with the tested compounds by intravenous or oral route.
b) ACE-inhibitory activity
The ex vivo ACE-inhibitory activity was evaluated by using a radiometric assay method, as reported in the literature by J. W. Ryan et al. in Biochem. J. (1977), 167, 501-504.
The inhibitory activity of the compounds of formula I was evaluated in lungs of spontaneously hypertensive rats (SHR), 5 minutes after i.v. injection (0.6, 0.64 and 21 μmoles/kg) and 30 minutes, 60 minutes and 4 hours after oral administration (30 μmoles/kg) of the tested compounds.
After the removal of the lungs from SHR, the lung tissue was homogenized and incubated for 2 hours at 37° C. in the presence of [^3 H]Hyp-Gly-Gly, as a substrate.
The reaction was stopped by adding hydrochloric acid.
The released radiolabelled hyppuric acid was extracted with ethyl acetate and counted by liquid scintillation spectrometry, according to conventional methods.
The ACE-inhibitory activity of the tested compounds was expressed as percentage of ACE-inhibition in SHR lungs.
As an example, the percentages of basal enzymatic activity obtained in the ex vivo tests after the administration of compounds 29 and 41, as representative compounds of formula I, and of the comparison compounds R-1, R-2, R-3 and R-4 are reported in the following table 2.

[1] = molecular target: T1, NEP (membranes from rat kidney cortex) (Rattus norvegicus, UniProt P07861); assay: In vitro NEP-inhibitory activity in rat kidney cortex membranes ([3H][Leu5]-enkephaline substrate); format: biochemical, male Sprague-Dawley rats; settings: 20 minutes at 30° C.; [3H][Leu5]-enkephaline 15 nM
T1 construct: from tissue; host or cells: kidney cortex membranes of male Sprague-Dawley rats
T1 sequence (P07861 1-750): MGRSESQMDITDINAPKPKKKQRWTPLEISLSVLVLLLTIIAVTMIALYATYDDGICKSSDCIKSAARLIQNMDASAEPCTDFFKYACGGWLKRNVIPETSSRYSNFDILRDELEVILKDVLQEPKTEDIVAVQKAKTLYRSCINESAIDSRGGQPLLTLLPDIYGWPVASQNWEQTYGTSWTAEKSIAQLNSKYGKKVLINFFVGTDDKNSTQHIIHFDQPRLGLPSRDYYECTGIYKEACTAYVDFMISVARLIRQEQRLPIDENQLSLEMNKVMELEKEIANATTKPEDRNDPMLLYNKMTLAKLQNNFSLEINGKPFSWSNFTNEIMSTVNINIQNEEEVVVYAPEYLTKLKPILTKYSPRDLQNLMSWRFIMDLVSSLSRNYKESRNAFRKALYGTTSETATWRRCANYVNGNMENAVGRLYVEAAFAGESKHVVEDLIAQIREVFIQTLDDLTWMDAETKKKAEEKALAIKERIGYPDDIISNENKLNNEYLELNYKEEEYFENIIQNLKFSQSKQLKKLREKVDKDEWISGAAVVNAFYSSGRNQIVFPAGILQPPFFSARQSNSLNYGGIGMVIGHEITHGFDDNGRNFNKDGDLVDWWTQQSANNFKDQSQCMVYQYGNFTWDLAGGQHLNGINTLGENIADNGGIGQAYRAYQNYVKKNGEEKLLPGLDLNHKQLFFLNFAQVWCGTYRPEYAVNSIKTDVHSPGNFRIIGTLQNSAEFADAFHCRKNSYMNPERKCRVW
Method: a) NEP-inhibitory activity
The NEP-inhibitory activity was evaluated in membranes from rat kidney cortex prepared according to the procedure described by T. Maeda et al. in Biochim. Biophys. Acta 1983, 731(1), 115-120.
By working at 0°-4° C., kidneys were removed from male Sprague-Dawley rats weighing approximately 300 g.
Cortex was carefully dissected, finely minced and suspended in a homogenization buffer (10 mM sodium phosphate pH 7.4 containing 1 mM MgCl2, 30 mM NaCl, 0.02% NaN3) 1:15 weight/volume.
The tissue was then homogenized for 30 seconds using an Ultra-Turrax homogenizer.
Approximately 10 ml of homogenate were layered over 10 ml of sucrose (41% weight/volume) and centrifuged at 31200 rpm for 30 minutes at 4° C. in a fixed angle rotor. The membranes were collected from the buffer/sucrose interface, washed twice with 50 mM TRIS/HCl buffer (pH 7.4) and resuspended into the same buffer for storage.
The membranes were stored in small aliquots at -80° C. until use.
The NEP-inhibitory activity was evaluated according to the method described by C. Llorens et al., in Eur. J. Pharmacol., 69, (1981), 113-116, as reported hereinafter.
Aliquots of the membrane suspension prepared as above described (concentration 5 μg/ml of proteins) were preincubated in the presence of an aminopeptidase inhibitory (Bestatin--1 mM) for 10 minutes at 30° C.
[^3 H][Leu^5 ]-enkephaline (15 nM) and buffer TRIS/HCl pH 7.4 (50 mM) were added in order to obtain a final volume of 100 μl.
Incubation (20 minutes at 30° C.) was stopped by adding HCl 0.1M (100 μl).
The formation of the metabolite [^3 H]Tyr-Gly-Gly was quantified by chromatography on polystyrene columns (Porapak Q).

pIC50 [1]: 8.30
Structure (SMILES): O=C(N[C@@H](Cc1ccc(-c2ccccc2)cc1)C(=O)O)C(CS)Cc1ccccc1 (some centres unmarked) [compound 41]
ACE-inhibition (lungs), 5 minutes (ACE (SHR lungs)): 49%
